Measured values from patent publication US10881679B2, “Application of a phillyrin/phillygeninin composition in preparing a medicine or health care product for alleviating or/and treating viral diseases, and medicine or health care product for treating viral diseases” (priority 2014, dated 2021).
Like-named read-outs stand apart in the source and are kept apart here. Marks after values point to notes of the source that are not given here.

Tests used:
Vero cells = assay: Cytotoxicity test (MTT) on Vero cells; type: cell-based, African green monkey; details: 72 h
Method: Cytotoxicity test: the drugs were diluted according to the concentrations shown in table 1-1 for determination of cytotoxicity. […] In addition, 6 wells were set up as normal control group (without drugs) while another 6 pores as blank control group (medium only). Cells were grown in a 37° C. incubator under 5% CO2. […] After 72 h, 20 μL MTT solution (5 mg·mL^−1) was added into each well to continue incubation for 4 h. The culture medium in each well was sucked and discarded, 100 μL DMSO was added to each well. Then the culture was shaken for 5 min, measured OD value at 492 nm to calculate the cell survival ratio. The cell survival ratio was analyzed using a Probit regression model in SPSS 18.0 statistical software, and the maximal nontoxic concentration (TC0) and median toxic concentration (TC50) of drugs against Vero cells were calculated.

influenza virus [1] = assay: Impact on virus-induced cytopathic effect in Vero cells (MTT): influenza virus; type: cell-based; details: influenza virus 100TCID50, Vero, 72 h; drug g/L (Table 1-2): phillyrin 0.01, Phillygeninin 0.02, compositions A, B 0.01, Ribavirin 0.70, oseltamivir phosphate 0.30
parainfluenza virus [2] = assay: Impact on virus-induced cytopathic effect in Vero cells (MTT): parainfluenza virus; type: cell-based; details: parainfluenza virus 100TCID50, Vero, 72 h; drug g/L as Table 1-2
[3] = test system: Coxsackievirus A16 (CoxA16); assay: Impact on virus-induced cytopathic effect in Vero cells (MTT): CoxA16; type: cell-based; details: CoxA16 100TCID50, Vero, 72 h; drug g/L as Table 1-2
[4] = test system: respiratory syncytial virus (RSV); assay: Impact on virus-induced cytopathic effect in Vero cells (MTT): RSV; type: cell-based; details: RSV 100TCID50, Vero, 72 h; drug g/L as Table 1-2
[5] = test system: Herpes zoster simplex viruses type I (HSV-I); assay: Impact on virus-induced cytopathic effect in Vero cells (MTT): HSV-I; type: cell-based; details: HSV-I 100TCID50, Vero, 72 h; drug g/L as Table 1-2
adenovirus (ADV) = assay: Impact on virus-induced cytopathic effect in Vero cells (MTT): ADV; type: cell-based; details: ADV 100TCID50, Vero, 72 h; drug g/L as Table 1-2
enterovirus EV71 = assay: Impact on virus-induced cytopathic effect in Vero cells (MTT): EV71; type: cell-based; details: EV71 100TCID50, Vero, 72 h; drug g/L as Table 1-2
[6] = test system: Coxsackie virus B3 (CVB3); assay: Impact on virus-induced cytopathic effect in Vero cells (MTT): CVB3; type: cell-based; details: CVB3 100TCID50, Vero, 72 h; drug g/L as Table 1-2
influenza virus [7] = type: in vivo, Kunming mice; details: 19.5 mg/kg/d i.g. 5 days
parainfluenza virus [8] = type: in vivo, Kunming mice; details: 19.5 mg/kg/d i.g. 5 days
influenza virus [9] = type: in vivo, Kunming mice
parainfluenza virus [10] = type: in vivo, Kunming mice

Row | SMILES | antiviral effective rate (ER %) (influenza virus [1]) | antiviral effective rate (ER %) (parainfluenza virus [2]) | antiviral effective rate (ER %) [3] [%] | antiviral effective rate (ER %) [4] | antiviral effective rate (ER %) [5] | antiviral effective rate (ER %) (adenovirus (ADV)) [%] | antiviral effective rate (ER %) (enterovirus EV71) [%] | antiviral effective rate (ER %) [6] [%] | further results
1 | CCOC(=O)C1=C[C@@H](OC(CC)CC)[C@H](NC(C)=O)[C@@H](N)C1 [oseltamivir phosphate] | 81.76** % | 94.52** % | 2.95 | 37.60% | 66.56** % | 10.31 | 51.86 | 1.64 | half toxic concentration (TC50) (Vero cells): 832 µg/mL; maximal non-toxic concentration (TC0) (Vero cells): 0.28 g/L; Lung index (influenza virus [7]): 1.178 ± 0.066; Lung index inhibition rate (influenza virus [7]): 19.84; Lung index (parainfluenza virus [8]): 1.243 ± 0.054; Lung index inhibition rate (parainfluenza virus [8]): 21.85; Hemagglutination titer (InX) (influenza virus [9]; 19.5 mg/kg/d i.g. 5 days): 20.50 ± 1.123; Inhibition rate (%) of hemagglutination titer (influenza virus [9]; 19.5 mg/kg/d i.g. 5 days): 36.73%; Hemagglutination titer (InX) (parainfluenza virus [10]; 19.5 mg/kg/d i.g. 5 days): 22.05; Inhibition rate (%) of hemagglutination titer (parainfluenza virus [10]; 19.5 mg/kg/d i.g. 5 days): 33.40%
2 | NC(=O)c1ncn([C@@H]2O[C@H](CO)[C@@H](O)[C@H]2O)n1 [Ribavirin] | 57.49** % | 91.56** % | 0.70 | 50.08* % | 62.92** % | 0.43 | 4.25 | 13.44 | Hemagglutination titer (InX) (influenza virus [9]; 58.5 mg/kg/d i.g. 5 days): 21.91 ± 1.050; Inhibition rate (%) of hemagglutination titer (influenza virus [9]; 58.5 mg/kg/d i.g. 5 days): 32.39%; Hemagglutination titer (InX) (parainfluenza virus [10]; 58.5 mg/kg/d i.g. 5 days): 23.22; Inhibition rate (%) of hemagglutination titer (parainfluenza virus [10]; 58.5 mg/kg/d i.g. 5 days): 29.86%
